Results: US10028989B2, “Composition comprising Retinol, a precursor or a reaction product of it and a plant extract from at least one Chamomilla plant for the treatment of cancer” (ALPINIA LAUDANUM INSTITUTE OF PHYTOPHARMACEUTICAL SCIENCES …, priority 2010, dated 2018)
“Also recorded” adds a separate entry of the source.

Key:
[1] = system: H460 human large cell lung cancer cell line; assay: Cellular growth of H460 cells, flow cytometry cell count with PI (Example 11); type: cell-based; details: retinoic acid 1 μg/ml, extracts 21 μg/ml, 6 days, 2% ethanol, FIG. 2
Experimental: (§1) The human large cell lung cancer cell line, H460, was obtained from the American Type Culture Collection. The cells were cultivated in RPMI-1640 medium containing 10% FBS and kept in a humidified incubator at 37° C. and 5% CO2. Cultures used in subsequent experiments were passaged less than 25 times. The H460 cells were seeded at 14375 cells/well (cell concentration of 10,000 cells/ml) in 12 well plates and were left to adhere overnight.
MR15E14, CHARE and Retinoic acid prepared as described in examples 2, 4 and 9 respectively including a solvent control (2% ethanol) were added to the cells. Media were replaced once after 3 days of incubation with fresh media and samples. After 6 days, all cells were harvested to be analyzed. The cell number was determined using flow cytometry. Live cells were differentiated from dead cells by adding Propidium iodide (PI). Live cells would be PI negative since the dye would be excluded from viable cells.
In short, cells were trypsinized, centrifuged and resuspended in 500 μl of media. 2 μl of PI (1 mg/ml) was added to 400 μl of cell suspension. Since the cells number present in 10 μl of the cell suspension was measured, multiple measurements for each well were taken.
Solvent control was set at 100%.

[2] = system: H460 human large cell lung cancer cell line; assay: Cellular growth of H460 cells, AMT without chamomile, with MR15E14 or with CHARE (Example 12); type: cell-based; details: extracts 21 μg/ml, 1% AMT, retinoic acid 1 μg/ml or 1% ethanol, 6 days, FIG. 3A/3B
Experimental: as §1, with “The following experiments were performed to compare the composition of the present invention with the teaching of WO 03101479 A1: The human” for “The human”
The H460 cells were incubated with the samples and sample pairs for a total of 6 days with one dose and media refreshment. After 6 days, all cells were harvested to be analyzed. The cell number was determined using flow cytometry. Live cells were differentiated from dead cells by adding Propidium iodide (PI). In short, cells were trypsinized, centrifuged and resuspended in 500 μl of media. 2 μl of PI (1 mg/ml) was added to 400 μl of cell suspension. Since the cells number present in 10 μl of the cell suspension was measured, multiple measurements for each well were taken. […] Solvent control was set at 100%.

[3] = system: Pan02 murine pancreatic adenocarcinoma; assay: Efficacy study in the syngenic orthotopic Pan02 tumor model (Example 15); type: in vivo, female C57BL/6 mice; details: oral, 21 days
Excerpt: The purpose of this study was to obtain information about the efficacy of the oral combination of Chamomile extract (MR31E25C1 and Retinoic acid (RetAcid) in a syngenic orthotropic PAN02 tumor murine model.
Young (approximately 7 weeks) female C57BL/6 mice were purchased from the National Cancer Institute (Frederick, Md.) and maintained in Aurigon Life Science GmbH's animal care facility with ad libitum access to water and mouse chow (Ssniff® R/M-H). The animals were divided into groups of 10 animals.
All animals, except those in the non-inoculated control group, were given an intrapancreatic injection of 2.5×10^5 Pan02 tumor cells each. Pan02 is a murine pancreatic adenocarcinoma cell line syngeneic to the C57BL/6 species. First treatment was given orally 15 days after the inoculation for a total period of 21 days.
Necropsy was performed at the end of the in-life phase or immediately on animals found dead or killed in extremis. The weights of the brain, whole pancreas, pancreatic tumor, spleen, and liver were determined and the number/size of metastases on the surface of the spleen and liver, peritoneal, kidney, ovary, diaphragm metastases, and metastases of the lymph nodes (if applicable) were recorded. Additionally, the size of the pancreatic tumors of the animals was measured.
The groups were as follows:
Group 1: Non-inoculated, untreated control group. […]

[4] = system: A172 human glioblastoma cell line; assay: Cellular growth of A172 cells, live cell count with Trypan Blue (Example 10); type: cell-based; details: retinyl acetate 1 μg/ml, 6 days, FIG. 1A
Experimental: The human glioblastoma cell lines A172 and U87 MG were cultivated in culture medium containing 10% FBS and kept in a humidified incubator at 37° C. and 5% CO2. Cultures used in subsequent experiments were passaged less than 25 times. The cells were seeded at 100,000 cells in T25 cm2 culture flasks (cell concentration of 10,000 cells/ml). MR15E7 and Retinyl Acetate prepared according to examples 1 and 8 respectively were added alone as individual or together in combination (A172 FIGS. 1A and U87 FIG. 1B). The solvent control was 2% ethanol. Media were replaced once after 3 days of incubation with fresh media and samples. After 6 days, all cells were harvested to be analyzed. The cell number was determined using a cell counter (Countess® automated cell counter, Invitrogen). Live cells were differentiated from dead cells by adding Trypan Blue. Live cells would be Trypan Blue negative since the dye would be excluded from viable cells. […] Solvent control was set at 100%. […] The solvent control and the final ethanol concentration for every well was 2%.

[5] = system: U87 MG human glioblastoma cell line; assay: Cellular growth of U87 MG cells, live cell count with Trypan Blue (Example 10); type: cell-based; details: MR15E7 30 μg/ml, retinyl acetate 1 μg/ml, 6 days, FIG. 1B
Experimental: The human glioblastoma cell lines A172 and U87 MG were cultivated in culture medium containing 10% FBS and kept in a humidified incubator at 37° C. and 5% CO2. Cultures used in subsequent experiments were passaged less than 25 times. The cells were seeded at 100,000 cells in T25 cm2 culture flasks (cell concentration of 10,000 cells/ml). MR15E7 and Retinyl Acetate prepared according to examples 1 and 8 respectively were added alone as individual or together in combination (A172 FIGS. 1A and U87 FIG. 1B). The solvent control was 2% ethanol.
Media were replaced once after 3 days of incubation with fresh media and samples. After 6 days, all cells were harvested to be analyzed. The cell number was determined using a cell counter (Countess® automated cell counter, Invitrogen).
Live cells were differentiated from dead cells by adding Trypan Blue. Live cells would be Trypan Blue negative since the dye would be excluded from viable cells.
Solvent control was set at 100%. […] The potential growth inhibitory effects of retinyl acetate (1 μg/ml), MR15E7 (30 μg/ml) and the combination of 30 μg/ml of the extract and retinyl acetate (1 μg/ml) were observed on both the A172 (A) and U87 MG (B) cell lines. The solvent control and the final ethanol concentration for every well was 2%.

| Structure (SMILES) | effect on cellular growth [1] | effect on cellular growth [2] | median tumor volume ([3]; MR31E25C1 484.5 mg/kg 3x daily, retinoic acid 25 mg/kg 2x daily for 2 days, then 10 mg/kg daily, FIG. 5) | cumulative metastases area in various organs ([3]; same doses, vs untreated PAN02 inoculated group, FIG. 6) | effect on cellular growth [4] | effect on cellular growth [5] |
| --- | --- | --- | --- | --- | --- | --- |
| CC1=C(/C=C/C(C)=C/C=C/C(C)=C/C(=O)O)C(C)(C)CCC1 [Retinoic acid, all-trans-Retinoic acid] | slightly reduced the cellular growth | slight growth retarding effect | even aggravated the situation | only slight reduction of the overall metastasis development |  |  |
| CC(=O)OC/C=C(C)/C=C/C=C(C)/C=C/C1=C(C)CCCC1(C)C [retinyl acetate, Retinyl Acetate] |  |  |  |  | did not affect cellular growth; also recorded: do not affect cellular growth | did not affect cellular growth; also recorded: do not affect cellular growth |
